Reference: patent US11427549B2, “Pyrimidinyloxy benzo-fused compounds as herbicides” (FMC Corporation, priority 2017, dated 2022)

Assays:
[1] = tested on: barnyardgrass (Echinochloa crus-galli); test: Test A preemergence, barnyardgrass; assay type: in vivo; conditions: Echinochloa crus-galli, pre-emergence, 240 h, 0 to 100 scale (0 no effect, 100 complete control), read-out: Plant response rating, Barnyardgrass; for pest or weed control at 31 g/ha: 31 g ai/ha; for pest or weed control at 125 g/ha: 125 g ai/ha
[2] = tested on: kochia (Kochia scoparia); test: Test A preemergence, kochia; assay type: in vivo; conditions: Bassia scoparia, pre-emergence, 240 h, 0 to 100 scale (0 no effect, 100 complete control), read-out: Plant response rating, Kochia; for pest or weed control at 31 g/ha: 31 g ai/ha; for pest or weed control at 125 g/ha: 125 g ai/ha
[3] = tested on: ragweed (common ragweed, Ambrosia elatior); test: Test A preemergence, ragweed; assay type: in vivo; conditions: Ambrosia artemisiifolia, pre-emergence, 240 h, 0 to 100 scale (0 no effect, 100 complete control), read-out: Plant response rating, Ragweed; for pest or weed control at 31 g/ha: 31 g ai/ha; for pest or weed control at 125 g/ha: 125 g ai/ha
[4] = tested on: ryegrass, Italian (Italian ryegrass, Lolium multiflorum); test: Test A preemergence, ryegrass, Italian; assay type: in vivo; conditions: Lolium multiflorum, pre-emergence, 240 h, 0 to 100 scale (0 no effect, 100 complete control), read-out: Plant response rating, Ryegrass, Italian; for pest or weed control at 31 g/ha: 31 g ai/ha; for pest or weed control at 125 g/ha: 125 g ai/ha
[5] = tested on: pigweed (Amaranthus retroflexus); test: Test A preemergence, pigweed; assay type: in vivo; conditions: Amaranthus retroflexus, pre-emergence, 240 h, 0 to 100 scale (0 no effect, 100 complete control), read-out: Plant response rating, Pigweed; for pest or weed control at 31 g/ha: 31 g ai/ha; for pest or weed control at 125 g/ha: 125 g ai/ha
[6] = tested on: barnyardgrass (Echinochloa crus-galli); test: Test A postemergence, barnyardgrass; assay type: in vivo; conditions: Echinochloa crus-galli, post-emergence, 240 h, 0 to 100 scale (0 no effect, 100 complete control), read-out: Plant response rating, Barnyardgrass; for pest or weed control at 31 g/ha: 31 g ai/ha; for pest or weed control at 125 g/ha: 125 g ai/ha
[7] = tested on: kochia (Kochia scoparia); test: Test A postemergence, kochia; assay type: in vivo; conditions: Bassia scoparia, post-emergence, 240 h, 0 to 100 scale (0 no effect, 100 complete control), read-out: Plant response rating, Kochia; for pest or weed control at 31 g/ha: 31 g ai/ha; for pest or weed control at 125 g/ha: 125 g ai/ha
[8] = tested on: ragweed (common ragweed, Ambrosia elatior); test: Test A postemergence, ragweed; assay type: in vivo; conditions: Ambrosia artemisiifolia, post-emergence, 240 h, 0 to 100 scale (0 no effect, 100 complete control), read-out: Plant response rating, Ragweed; for pest or weed control at 31 g/ha: 31 g ai/ha; for pest or weed control at 125 g/ha: 125 g ai/ha
[9] = tested on: ryegrass, Italian (Italian ryegrass, Lolium multiflorum); test: Test A postemergence, ryegrass, Italian; assay type: in vivo; conditions: Lolium multiflorum, post-emergence, 240 h, 0 to 100 scale (0 no effect, 100 complete control), read-out: Plant response rating, Ryegrass, Italian; for pest or weed control at 31 g/ha: 31 g ai/ha; for pest or weed control at 125 g/ha: 125 g ai/ha
[10] = tested on: pigweed (Amaranthus retroflexus); test: Test A postemergence, pigweed; assay type: in vivo; conditions: Amaranthus retroflexus, post-emergence, 240 h, 0 to 100 scale (0 no effect, 100 complete control), read-out: Plant response rating, Pigweed; for pest or weed control at 31 g/ha: 31 g ai/ha; for pest or weed control at 125 g/ha: 125 g ai/ha
[11] = tested on: wheat (Triticum aestivum); test: Test A postemergence, wheat; assay type: in vivo; conditions: Triticum aestivum, post-emergence, 240 h, 0 to 100 scale (0 no effect, 100 complete control), read-out: Plant response rating, Wheat; for plant injury at 31 g/ha: 31 g ai/ha; for plant injury at 125 g/ha: 125 g ai/ha
[12] = tested on: corn (Zea mays); test: Test A postemergence, corn; assay type: in vivo; conditions: Zea mays, post-emergence, 240 h, 0 to 100 scale (0 no effect, 100 complete control); for Corn plant response rating (crop injury, 0 = no effect, 100 = complete kill) at 31 g/ha: 31 g ai/ha; for Corn plant response rating (crop injury, 0 = no effect, 100 = complete kill) at 125 g/ha: 125 g ai/ha
[13] = tested on: blackgrass (Alopecurus myosuroides); test: Test A postemergence, blackgrass; assay type: in vivo; conditions: Alopecurus myosuroides, post-emergence, 240 h, 0 to 100 scale (0 no effect, 100 complete control), read-out: Plant response rating, Blackgrass; for pest or weed control at 31 g/ha: 31 g ai/ha; for pest or weed control at 125 g/ha: 125 g ai/ha
[14] = tested on: galium (catchweed bedstraw, Galium aparine); test: Test A postemergence, galium; assay type: in vivo; conditions: Galium, post-emergence, 240 h, 0 to 100 scale (0 no effect, 100 complete control), read-out: Plant response rating, Galium; for pest or weed control at 31 g/ha: 31 g ai/ha; for pest or weed control at 125 g/ha: 125 g ai/ha
[15] = tested on: rice (Oryza sativa); test: Test B flooded paddy test, rice; conditions: Oryza sativa, read-out: Plant response rating, Rice (0 to 100 scale, 0 is no effect, 100 is complete control)
[16] = tested on: ducksalad (Heteranthera limosa); test: Test B flooded paddy test, ducksalad; conditions: Heteranthera limosa, read-out: Plant response rating, Ducksalad (0 to 100 scale, 0 is no effect, 100 is complete control)
[17] = tested on: barnyardgrass (Echinochloa crus-galli); test: Test B flooded paddy test, barnyardgrass; conditions: Echinochloa crus-galli, read-out: Plant response rating, Barnyardgrass (0 to 100 scale, 0 is no effect, 100 is complete control)

## O=C1Cc2cccc(Oc3ncc(Cl)cn3)c2C(CCC(F)(F)F)O1 (stereo not drawn) [Compound 28, 8-[(5-Chloro-2-pyrimidinyl)oxy]-1,4-dihydro-1-(3,3,3-trifluoropropyl)-3H-2-benzopyran-3-one]
[1]
  pest or weed control at 31 g/ha: 0%
  pest or weed control at 125 g/ha: 60%
[2]
  pest or weed control at 31 g/ha: 0%
  pest or weed control at 125 g/ha: 50%
[3]
  pest or weed control at 31 g/ha: 0%
  pest or weed control at 125 g/ha: 0%
[4]
  pest or weed control at 31 g/ha: 0%
  pest or weed control at 125 g/ha: 10%
[5]
  pest or weed control at 31 g/ha: 10%
  pest or weed control at 125 g/ha: 100%
[6]
  pest or weed control at 31 g/ha: 0%
  pest or weed control at 125 g/ha: 10%
[7]
  pest or weed control at 31 g/ha: 20%
  pest or weed control at 125 g/ha: 70%
[8]
  pest or weed control at 31 g/ha: 10%
  pest or weed control at 125 g/ha: 20%
[9]
  pest or weed control at 31 g/ha: 0%
  pest or weed control at 125 g/ha: 0%
[10]
  pest or weed control at 31 g/ha: 30%
  pest or weed control at 125 g/ha: 70%
[11]
  plant injury at 31 g/ha: 0%
  plant injury at 125 g/ha: 0%
[12]
  Corn plant response rating (crop injury, 0 = no effect, 100 = complete kill) at 31 g/ha: 10%
  Corn plant response rating (crop injury, 0 = no effect, 100 = complete kill) at 125 g/ha: 20%
[13]
  pest or weed control at 31 g/ha: 10%
  pest or weed control at 125 g/ha: 60%
[14]
  pest or weed control at 31 g/ha: 20%
  pest or weed control at 125 g/ha: 60%
[15]
  plant injury at 250 g/ha: 0%
[16]
  pest or weed control at 250 g/ha: 0%
[17]
  pest or weed control at 250 g/ha: 0%

## O=C1OCc2cccc(Oc3ncc(Cl)cn3)c2C1CCC(F)(F)F (stereo not drawn) [Compound 29, 5-[(5-Chloro-2-pyrimidinyl)oxy]-1,4-dihydro-4-(3,3,3-trifluoropropyl)-3H-2-benzopyran-3-one]
[1]
  pest or weed control at 31 g/ha: 0%
  pest or weed control at 125 g/ha: 10%
[2]
  pest or weed control at 31 g/ha: 0%
  pest or weed control at 125 g/ha: 10%
[3]
  pest or weed control at 31 g/ha: 0%
  pest or weed control at 125 g/ha: 10%
[4]
  pest or weed control at 31 g/ha: 0%
  pest or weed control at 125 g/ha: 0%
[5]
  pest or weed control at 31 g/ha: 0%
  pest or weed control at 125 g/ha: 80%
[6]
  pest or weed control at 31 g/ha: 0%
  pest or weed control at 125 g/ha: 30%
[7]
  pest or weed control at 31 g/ha: 20%
  pest or weed control at 125 g/ha: 60%
[8]
  pest or weed control at 31 g/ha: 10%
  pest or weed control at 125 g/ha: 30%
[9]
  pest or weed control at 31 g/ha: 0%
  pest or weed control at 125 g/ha: 30%
[10]
  pest or weed control at 31 g/ha: 30%
  pest or weed control at 125 g/ha: 70%
[11]
  plant injury at 31 g/ha: 0%
  plant injury at 125 g/ha: 10%
[12]
  Corn plant response rating (crop injury, 0 = no effect, 100 = complete kill) at 31 g/ha: 10%
  Corn plant response rating (crop injury, 0 = no effect, 100 = complete kill) at 125 g/ha: 30%
[13]
  pest or weed control at 31 g/ha: 30%
  pest or weed control at 125 g/ha: 30%
[14]
  pest or weed control at 31 g/ha: 20%
  pest or weed control at 125 g/ha: 50%
[15]
  plant injury at 250 g/ha: 0%
[16]
  pest or weed control at 250 g/ha: 0%
[17]
  pest or weed control at 250 g/ha: 0%

## O=C1CCC(CCCC(F)(F)F)c2c(Oc3ncc(Cl)cn3)cccc21 (stereo not drawn) [Compound 30, 5-[(5-Chloro-2-pyrimidinyl)oxy]-3,4-dihydro-4-(4,4,4-trifluorobutyl)-1(2H)-naphthalenone]
[1]
  pest or weed control at 31 g/ha: 0%
  pest or weed control at 125 g/ha: 40%
[2]
  pest or weed control at 31 g/ha: 0%
  pest or weed control at 125 g/ha: 0%
[3]
  pest or weed control at 31 g/ha: 0%
  pest or weed control at 125 g/ha: 0%
[4]
  pest or weed control at 31 g/ha: 0%
  pest or weed control at 125 g/ha: 10%
[5]
  pest or weed control at 31 g/ha: 10%
  pest or weed control at 125 g/ha: 60%
[6]
  pest or weed control at 31 g/ha: 20%
  pest or weed control at 125 g/ha: 30%
[7]
  pest or weed control at 31 g/ha: 10%
  pest or weed control at 125 g/ha: 30%
[8]
  pest or weed control at 31 g/ha: 10%
  pest or weed control at 125 g/ha: 10%
[9]
  pest or weed control at 31 g/ha: 30%
  pest or weed control at 125 g/ha: 30%
[10]
  pest or weed control at 31 g/ha: 70%
  pest or weed control at 125 g/ha: 90%
[11]
  plant injury at 31 g/ha: 0%
  plant injury at 125 g/ha: 20%
[12]
  Corn plant response rating (crop injury, 0 = no effect, 100 = complete kill) at 31 g/ha: 30%
  Corn plant response rating (crop injury, 0 = no effect, 100 = complete kill) at 125 g/ha: 30%
[13]
  pest or weed control at 31 g/ha: 20%
  pest or weed control at 125 g/ha: 60%
[14]
  pest or weed control at 31 g/ha: 30%
  pest or weed control at 125 g/ha: 80%
[15]
  plant injury at 250 g/ha: 0%
[16]
  pest or weed control at 250 g/ha: 85%
[17]
  pest or weed control at 250 g/ha: 20%
